Experimental data published in US10112935B2, “Indazolyl thiadiazolamines and related compounds for inhibition of Rho-associated protein kinase and the treatment of disease” (Lycera Corporation, priority 2015, dated 2018).

Experiments:
ROCK [1] = settings: porcine, IL-1 beta-induced; cited from earlier work
ROCK [2] = settings: rat stroke model; cited from earlier work
[3] = target: GST-tagged human ROCK1 catalytic domain 1-477 (Homo sapiens (Human), UniProt Q13464); assay: Inhibition of Rho-associated protein kinase isoform 1 (LANCE Ultra ULight-CREBtide FRET kinase assay); assay type: biochemical; settings: 30 μM was the highest concentration analyzed
Chain of GST-tagged human ROCK1 catalytic domain 1-477 (Q13464 1-477): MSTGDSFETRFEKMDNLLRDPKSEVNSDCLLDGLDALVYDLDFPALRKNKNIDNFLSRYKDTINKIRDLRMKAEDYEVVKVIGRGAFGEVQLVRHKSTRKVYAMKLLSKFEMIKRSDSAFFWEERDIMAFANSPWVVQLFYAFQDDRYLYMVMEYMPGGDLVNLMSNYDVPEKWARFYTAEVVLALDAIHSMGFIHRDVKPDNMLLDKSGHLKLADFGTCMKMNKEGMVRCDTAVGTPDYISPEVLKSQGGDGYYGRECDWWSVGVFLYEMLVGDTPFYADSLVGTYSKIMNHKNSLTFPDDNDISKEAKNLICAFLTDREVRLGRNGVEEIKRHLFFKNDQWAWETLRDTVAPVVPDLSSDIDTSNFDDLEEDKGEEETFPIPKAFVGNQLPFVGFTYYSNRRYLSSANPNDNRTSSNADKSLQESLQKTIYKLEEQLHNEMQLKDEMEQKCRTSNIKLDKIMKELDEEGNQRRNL
In short: (§1)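 Baculovirus-expressed kinase phosphorylated ULight-CREBtide for 90 min at room temperature before the reaction was stopped with 10 mM EDTA. Phospho-substrate was detected by TR-FRET with 1 nM Europium-anti-phospho-CREB (Ser133) antibody after 60 min at room temperature.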

[4] = target: GST-tagged human ROCK2 catalytic domain 1-553 (Homo sapiens (Human), UniProt O75116); assay: Inhibition of Rho-associated protein kinase isoform 2 (LANCE Ultra ULight-CREBtide FRET kinase assay); assay type: biochemical; settings: for IC50: 30 μM was the highest concentration analyzed
Chain of GST-tagged human ROCK2 catalytic domain 1-553 (O75116 1-553): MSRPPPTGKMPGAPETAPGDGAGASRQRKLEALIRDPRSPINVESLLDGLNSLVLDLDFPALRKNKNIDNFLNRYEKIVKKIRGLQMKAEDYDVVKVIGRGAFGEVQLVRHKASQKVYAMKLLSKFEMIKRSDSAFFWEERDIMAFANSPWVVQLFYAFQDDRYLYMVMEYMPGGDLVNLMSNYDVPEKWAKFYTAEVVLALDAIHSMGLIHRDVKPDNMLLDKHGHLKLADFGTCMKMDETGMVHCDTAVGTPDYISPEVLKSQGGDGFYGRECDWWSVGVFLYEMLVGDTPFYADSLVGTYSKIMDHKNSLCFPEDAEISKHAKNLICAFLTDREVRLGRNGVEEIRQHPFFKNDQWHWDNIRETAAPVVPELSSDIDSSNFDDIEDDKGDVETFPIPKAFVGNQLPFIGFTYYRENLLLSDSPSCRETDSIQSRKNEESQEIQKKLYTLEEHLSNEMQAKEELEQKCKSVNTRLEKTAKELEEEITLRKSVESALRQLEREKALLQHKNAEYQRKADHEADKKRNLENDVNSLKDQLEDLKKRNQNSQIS
In short: as §1

Row | IC50 [3] | IC50 [4] | Selectivity for ROCK2 over ROCK1 (IC50 ROCK1 / IC50 ROCK2) ([4]; selectivity ROCK2 vs ROCK1) | SMILES | coronary stenosis (ROCK [1]) | infarct size and neurologic deficit (ROCK [2])
1 | – | – | – | O=S(=O)(c1cccc2cnccc12)N1CCCNCC1 [fasudil] | progressively reduce coronary stenosis | reduce both the infarct size and neurologic deficit
2 | > 30 µM | < 1 µM | >100 | Brc1ccc(-c2cn3cccc(-c4nnc(Nc5ccc6[nH]ncc6c5)s4)c3n2)cc1 [Example 52G] | – | –
3 | > 30 µM | > 30 µM | – | Clc1c(Nc2nnc(-c3cccc4c3ncn4CCN3CCOCC3)s2)ccc2[nH]ncc12 [Example 75V] | – | –
